# BindingDB's records for doi:10.7270/Q2TB15DB (Burnham Center For Chemical Genomics, 2011)
# Biological target: T1, Endoribonuclease toxin MazF (Escherichia coli (strain K12), UniProt P0AE70)
# T1 sequence (P0AE70 whole entry): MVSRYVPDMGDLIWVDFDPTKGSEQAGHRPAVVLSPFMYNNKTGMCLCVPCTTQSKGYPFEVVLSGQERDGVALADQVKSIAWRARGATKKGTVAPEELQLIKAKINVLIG
# Assay: fluorescent RNA oligo signal without MazF, dose response, counter-screen for MazEF activator project, biochemical, fluorescence, single-stranded RNase substrate (AID 588502)
row,Structure (SMILES),EC50
1,CCOc1ccc(N=CCC(=O)c2ccc(OC)cc2)c([N+](=O)[O-])c1,6.29 µM
2,O=C1N=c2ccccc2=C1NNc1ccc(F)cc1,> 99 µM
3,Cc1ccc(Cl)c2c1=NC(=O)C=2NNc1ccccc1,8.15 µM
4,N#CC(C(=O)c1ccc([N+](=O)[O-])o1)c1nc2ccccc2[nH]1 (stereo not drawn),5.53 µM
5,Cc1oc(C)c2c(=O)ccc3c(c12)OC(=N)C(C#N)C3c1ccccc1 (stereo not drawn),> 99 µM
6,CC1CC(=O)C2=C(C1)OC(=N)C(C#N)C2c1coc2ccccc2c1=O (stereo not drawn),> 99 µM
7,O=C1N=c2ccccc2=C1NNc1ccccc1F,31.7 µM
8,O=C1Nc2ccc([N+](=O)[O-])cc2C1=NNc1ccc(F)cc1,20.3 µM
9,Cc1ccc2nc(N3C(=O)C(=O)C(C(=O)c4ccco4)C3c3cccs3)sc2c1 (stereo not drawn),> 99 µM
10,"Cc1cc(O)n(-c2ccc(NCc3ccc(Cl)cc3)c([N+](=O)[O-])c2)c1O [1-{4-[(4-chlorobenzyl)amino]-3-nitrophenyl}-3-methylpyrrolidine-2,5-dione]",> 99 µM
11,"COc1ccc(Nc2oc3cc(=O)ccc-3cc2C(=O)NCC2CCCO2)c(OC)c1 (stereo not drawn) [2-(2,4-dimethoxyanilino)-7-oxo-N-(2-oxolanylmethyl)-1-benzopyran-3-carboxamide]",> 99 µM
12,"CCCCOc1cccc(C2C(C(=O)c3ccc(C)o3)C(=O)C(=O)N2c2nnc(C)s2)c1 (stereo not drawn) [2-(3-butoxyphenyl)-3-(5-methylfuran-2-yl)carbonyl-1-(5-methyl-1,3,4-thiadiazol-2-yl)-4-oxidanyl-2H-pyrrol-5-one]",20.4 µM
13,"CCOc1cccc(C2C(C(=O)c3ccc(C)o3)C(=O)C(=O)N2c2nccs2)c1 (stereo not drawn) [2-(3-ethoxyphenyl)-3-(5-methylfuran-2-yl)carbonyl-4-oxidanyl-1-(1,3-thiazol-2-yl)-2H-pyrrol-5-one]",> 99 µM
14,"Cc1[nH]c2ccccc2c1/C=C1\N=C(c2ccc(F)cc2)OC1=O [2-(4-fluorophenyl)-4-[(2-methyl-1H-indol-3-yl)methylene]-1,3-oxazol-5(4H)-one]",55.9 µM
15,"Cc1nnc(N2C(=O)C(=O)C(C(=O)c3ccco3)C2c2ccc(C(C)(C)C)cc2)s1 (stereo not drawn) [2-(4-tert-butylphenyl)-3-(furan-2-carbonyl)-4-hydroxy-1-(5-methyl-1,3,4-thiadiazol-2-yl)-2H-pyrrol-5-one]",19.7 µM
16,O=[N+]([O-])c1ccc(N=NCc2ccccc2)c(F)c1 [2-fluoranyl-4-nitro-N-[(phenylmethylidene)amino]aniline],27.2 µM
17,"O=C1C(=O)N(c2nccs2)C(c2ccccc2)C1C(=O)c1cc2ccccc2o1 (stereo not drawn) [3-(1-benzofuran-2-carbonyl)-4-hydroxy-2-phenyl-1-(1,3-thiazol-2-yl)-2H-pyrrol-5-one]",> 99 µM
18,"C=CCOc1cccc(C2C(C(=O)c3ccc(C)o3)C(=O)C(=O)N2c2nccs2)c1 (stereo not drawn) [3-(5-methylfuran-2-yl)carbonyl-4-oxidanyl-2-(3-prop-2-enoxyphenyl)-1-(1,3-thiazol-2-yl)-2H-pyrrol-5-one]",> 99 µM
19,"CSc1ccc(C2C(C(=O)c3ccco3)C(=O)C(=O)N2c2nnc(SC)s2)cc1 (stereo not drawn) [3-(furan-2-carbonyl)-4-hydroxy-2-(4-methylsulfanylphenyl)-1-(5-methylsulfanyl-1,3,4-thiadiazol-2-yl)-2H-pyrrol-5-one]",> 99 µM
20,O=C1Nc2ccccc2C1=NNc1ccccc1 [3-(phenylhydrazo)-2-indolone],54.6 µM

row,Structure (SMILES),EC50
1,"COc1cccc(C2=Nc3nnnn3C(c3ccc(N(C)C)cc3)C2)c1 (stereo not drawn) [4-[5-(3-methoxyphenyl)-1,7-dihydro-[1,2,3,4]tetrazolo[1,5-a]pyrimidin-7-yl]-N,N-dimethyl-aniline]",> 99 µM
2,"N#Cc1ccc(-n2c(O)c3[nH][nH]c(C(=O)c4ccc5ccccc5n4)c-3c2=O)cc1 [4-[(3aS,6aS)-4,6-dioxo-3-[oxo(2-quinolinyl)methyl]-3a,6a-dihydro-1H-pyrrolo[3,4-c]pyrazol-5-yl]benzonitrile]",0.271 µM
3,Cc1ccc(N/N=C2/C(=O)Nc3ccc(F)cc32)cc1 [5-fluoro-3-[2-(4-methylphenyl)hydrazono]indolin-2-one],29.9 µM
4,"O=c1cc2oc(O)c3cc(O)c(O)c(O)c3c-2oc1=O [6,8,9,10-tetrahydroxypyran[3,2-c]isochromene-2,3-quinone]",> 99 µM
5,"COCc1n[nH]c2c1C(c1cc(OC)c(O)c(OC)c1)C(C#N)C(=N)O2 (stereo not drawn) [6-azanyl-4-(3,5-dimethoxy-4-oxidanyl-phenyl)-3-(methoxymethyl)-2,4-dihydropyrano[2,3-c]pyrazole-5-carbonitrile]",> 99 µM
6,Cn1c(C(C#N)C(=O)COc2ccc3ccccc3c2)nc2ccccc21 (stereo not drawn) [(2E)-2-(3-methyl-1H-benzimidazol-2-ylidene)-4-(2-naphthalenyloxy)-3-oxobutanenitrile],> 99 µM
7,"COc1cc2c(cc1OC)C(CC(=O)c1ccc([N+](=O)[O-])c(C)c1)=NCC2 [(2Z)-2-(6,7-dimethoxy-3,4-dihydro-2H-isoquinolin-1-ylidene)-1-(3-methyl-4-nitrophenyl)ethanone]",43.8 µM
8,"O=C1N=c2ccccc2=C1NNc1cccc(Cl)c1 [(3E)-1H-indole-2,3-dione 3-[(3-chlorophenyl)hydrazone]]",> 99 µM
9,CCCCN1C(=O)C(=NNc2ccccc2O)c2ccccc21 [(3Z)-1-butyl-3-[(2-hydroxyphenyl)hydrazinylidene]indol-2-one],69.5 µM
10,CCCN1C(=O)C(=NNc2ccc3ccccc3n2)c2ccccc21 [(3Z)-1-propyl-3-(2-quinolinylhydrazinylidene)-2-indolone],> 99 µM
11,Cc1ccc(NN=C2C(=O)N(CN3CCOCC3)c3ccccc32)cc1 [(3Z)-3-[(4-methylphenyl)hydrazinylidene]-1-(4-morpholinylmethyl)-2-indolone],50.5 µM
12,"O=C(c1ccc2ccccc2n1)c1[nH][nH]c2c(O)n(-c3cccc(F)c3)c(=O)c1-2 [(3aS,6aS)-5-(3-fluorophenyl)-3-[oxo(2-quinolinyl)methyl]-3a,6a-dihydro-1H-pyrrolo[3,4-c]pyrazole-4,6-dione]",> 99 µM
13,"N=C(N)C1=CC(=O)/C(=C/C=c2ccc(=C(N)N)cc2)C=C1 [(4E)-4-[2-[4-[bis(azanyl)methylidene]cyclohexa-2,5-dien-1-ylidene]ethylidene]-3-oxidanylidene-cyclohexa-1,5-diene-1-carboximidamide;2-oxidanylethanesulfonic acid]",> 99 µM
14,"O=C1NC(=O)N(C2CCCCC2)C(=O)C1=CCC=Nc1ccccc1 [(5Z)-5-[(E)-3-anilinoprop-2-enylidene]-1-cyclohexyl-1,3-diazinane-2,4,6-trione]",9.49 µM
15,Clc1cccc(C(Cc2nc3ccccc3[nH]2)N=Nc2ccccc2)c1 (stereo not drawn) [MLS000374846],> 99 µM
16,COc1ccc(CN=Nc2ccc([N+](=O)[O-])cc2S(=O)(=O)N2CCN(C)CC2)cc1 [MLS000553953],8.43 µM
17,Cc1cccc(NNC2=c3cc(F)ccc3=NC2=O)c1 [MLS000673317],> 99 µM
18,O=c1[nH]c(N=NCc2ccc(F)cc2)nc2ccccc12 [MLS000700887],> 99 µM
19,CCC(N=Nc1cccc(C)c1)c1cnnc(SC)n1 (stereo not drawn) [MLS000705906],> 99 µM
20,C=c1[nH]n(-c2ccccc2)c(=O)c1=Cc1cc(C)n(C2CC2)c1C [MLS001018445],> 99 µM

row,Structure (SMILES),EC50
1,CCSc1nnc(N2C(=O)C(=O)C(C(=O)c3ccco3)C2c2cccc(OC)c2)s1 (stereo not drawn) [MLS001140620],> 99 µM
2,O=[N+]([O-])c1cc/c(=N\c2ccccc2O)c2no[nH]c1-2 [MLS001206694],> 99 µM
3,Oc1ccc2ccccc2c1C=Nn1c(O)csc1=S [MLS002707175],> 99 µM
4,"O=[N+]([O-])c1ccc(N=NCc2ccc3c(c2)OCO3)nc1 [N-(1,3-benzodioxol-5-ylmethylideneamino)-5-nitro-pyridin-2-amine]",> 99 µM
5,O=[N+]([O-])c1ccc(N=NCc2cccc3ccccc23)nc1 [N-(naphthalen-1-ylmethylideneamino)-5-nitro-pyridin-2-amine],45.4 µM
6,CCN(CC)c1ccc(CN=Nc2ccc([N+](=O)[O-])cn2)cc1 [N-[[4-(diethylamino)phenyl]methylideneamino]-5-nitro-pyridin-2-amine],70.2 µM
7,Cc1ccc(C2=Nc3nnnn3C(c3ccc(N(C)C)cc3)C2)cc1 (stereo not drawn) [SMR000092467],> 99 µM
8,COc1ccc(C=C2CCCC(C(=O)C(F)(F)F)C2=O)cc1 (stereo not drawn) [SMR000142699],33.8 µM
9,Cc1[nH]c2ccccc2c1/C=C1\N=C(c2ccc(C(F)(F)F)cc2)OC1=O [SMR000152363],> 99 µM
10,O=C(c1ccc2ccccc2n1)c1[nH][nH]c2c(O)n(-c3cccc(C(F)(F)F)c3)c(=O)c1-2 [SMR000212847],> 99 µM
11,Cc1ccc(S(=O)(=O)N[N-][C+]2CCC(C(C)(C)C)CC2)cc1[N+](=O)[O-] [SMR000241764],> 99 µM
12,COc1ccc(N=CCC(=O)c2ccc(C)cc2)cc1OC [SMR000269732],25 µM
13,COc1cc(C2c3c(-c4cccs4)n[nH]c3OC(=N)C2C#N)cc(OC)c1O (stereo not drawn) [SMR000275523],13.3 µM
14,CC1(C)CC(=O)C(N=Nc2cc3c(cc2[N+](=O)[O-])OCCO3)C(=O)C1 [SMR000348183],29.6 µM
15,O=C1N=c2ccc(Br)cc2=C1NNc1ccc(F)cc1 [SMR000564049],45.8 µM
16,CSc1nnc(N2C(=O)C(=O)C(C(=O)c3ccc(C)o3)C2c2ccc(C)cc2)s1 (stereo not drawn) [SMR000650392],> 99 µM
17,"CCN1C(=O)C(C=NN=Cc2ccccc2)c2ccc(C3=NNC(=O)CC3)cc21 (stereo not drawn) [benzaldehyde {[1-ethyl-2-oxo-6-(6-oxo-1,4,5,6-tetrahydro-3-pyridazinyl)-1,2-dihydro-3H-indol-3-ylidene]methyl}hydrazone]",> 99 µM
18,"CCOC(=O)c1c(NC=C2C(=O)NC(=O)NC2=O)sc2c1CCC2 [ethyl 2-{[(1E)-(2,4,6-trioxohexahydropyrimidin-5-yl)methylene]amino}-5,6-dihydro-4H-cyclopenta[b]thiophene-3-carboxylate]",> 99 µM
